ChEMBL document CHEMBL4715782, “Multitarget-directed oxoisoaporphine derivatives: Anti-acetylcholinesterase, anti-β-amyloid aggregation and enhanced autophagy activity against Alzheimer's disease” (Bioorg Med Chem, 2016)
pIC50: −log10 of the molar value. The source made the active and inactive calls. The rule behind the calls is not given here.

Tests used:
Acetylcholinesterase = Acetylcholinesterase (Electrophorus electricus, UniProt O42275); test: Inhibition of electric eel AChE using acetylthiocholine chloride as substrate incubated for 15 mins by Ellman's method
[1] = biological target: Acetylcholinesterase (Electrophorus electricus) (UniProt O42275); test: Mixed type inhibition of electric eel AChE using acetylthiocholine chloride as substrate preincubated for 15 mins followed by substrate addition by reciprocal plot analysis
Drosophila melanogaster [2] = test: In vivo inhibition of AChE in Elav-GAL4/UAS-Abeta42 hybrid Drosophila melanogaster assessed as reduction in intracephalic AChE levels by HPLC analysis; assay type: functional; details: dose 0.1-10 µM
Homo sapiens = species: Homo sapiens; test: Inhibition of self-induced amyloid beta (1 to 42) (unknown origin) aggregation at 10 uM after 48 hrs by thioflavin-T fluorescence method relative to control
SH-SY5Y = test: (§1) Inhibition of amyloid beta42 secretion in human SH-SY5Y cells overexpressing human APP Swedish mutant at 1 uM incubated for 24 hrs by ELISA; assay type: functional
Caenorhabditis elegans = test: Induction of autophagy in Caenorhabditis elegans BC12921 expressing SQST-1-GFP fusion protein assessed as decrease in fluorescence intensity at 1 uM by microplate reader analysis; assay type: functional; parameters: scale not given: the % may be the effect or the level left
Drosophila melanogaster [3] = test: In vivo inhibition of AChE in Elav-GAL4/UAS-Abeta42 hybrid Drosophila melanogaster assessed as reduction in intracephalic AChE levels at 0.1 to 10 uM by HPLC analysis; assay type: functional; details: dose 0.1-10 µM
in vitro = details: PAMPA
Description: Effective permeability of the compound in PBS/ethanol buffer (9:1) at 25 ug/ml after 10 hrs by UV plate reader based PAMPA-BBB assay

[4] = as §1; assay type: functional

Sequence of Acetylcholinesterase (O42275 whole entry): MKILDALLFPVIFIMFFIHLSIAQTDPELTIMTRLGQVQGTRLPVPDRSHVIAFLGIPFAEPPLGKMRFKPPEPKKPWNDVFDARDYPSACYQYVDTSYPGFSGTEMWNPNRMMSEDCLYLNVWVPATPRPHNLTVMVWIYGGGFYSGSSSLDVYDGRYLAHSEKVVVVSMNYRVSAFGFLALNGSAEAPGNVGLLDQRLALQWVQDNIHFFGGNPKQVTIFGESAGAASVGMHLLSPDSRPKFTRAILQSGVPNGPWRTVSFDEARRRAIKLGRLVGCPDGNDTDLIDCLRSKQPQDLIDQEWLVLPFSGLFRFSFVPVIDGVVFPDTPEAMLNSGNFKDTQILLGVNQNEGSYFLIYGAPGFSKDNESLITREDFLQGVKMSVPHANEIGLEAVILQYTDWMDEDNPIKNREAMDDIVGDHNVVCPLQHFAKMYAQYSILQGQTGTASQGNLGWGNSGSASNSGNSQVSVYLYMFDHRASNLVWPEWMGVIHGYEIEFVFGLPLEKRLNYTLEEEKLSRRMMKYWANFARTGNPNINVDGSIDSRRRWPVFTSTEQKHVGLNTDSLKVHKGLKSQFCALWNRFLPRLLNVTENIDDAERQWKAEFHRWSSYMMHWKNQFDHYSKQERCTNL
Sequence of Acetylcholinesterase (Electrophorus electricus) (O42275 24-633 limits assumed): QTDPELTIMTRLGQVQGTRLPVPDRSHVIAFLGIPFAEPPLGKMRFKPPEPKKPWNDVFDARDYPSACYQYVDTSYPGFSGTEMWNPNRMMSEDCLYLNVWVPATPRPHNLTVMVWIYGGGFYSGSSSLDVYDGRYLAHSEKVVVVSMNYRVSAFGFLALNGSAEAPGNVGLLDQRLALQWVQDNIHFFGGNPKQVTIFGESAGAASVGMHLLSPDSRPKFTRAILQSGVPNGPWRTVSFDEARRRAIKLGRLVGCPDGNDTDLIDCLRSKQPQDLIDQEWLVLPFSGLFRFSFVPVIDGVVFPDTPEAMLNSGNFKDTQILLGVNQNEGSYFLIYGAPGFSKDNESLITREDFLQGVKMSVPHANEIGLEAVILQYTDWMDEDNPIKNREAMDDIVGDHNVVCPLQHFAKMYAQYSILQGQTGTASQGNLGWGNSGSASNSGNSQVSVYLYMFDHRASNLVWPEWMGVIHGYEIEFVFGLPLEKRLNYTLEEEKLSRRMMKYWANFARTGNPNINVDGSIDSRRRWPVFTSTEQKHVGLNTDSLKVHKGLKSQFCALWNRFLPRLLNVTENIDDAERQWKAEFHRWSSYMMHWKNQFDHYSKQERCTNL

With O=C(CCN1CCCCC1)Nc1cccc2c1C(=O)c1cccc3ccnc-2c13 the pIC50 (Acetylcholinesterase) was 7.09, the inhibition [1] was “Active” and the inhibition (Drosophila melanogaster [2]) was “Dose-dependent effect”. For the same molecule, the inhibition (Homo sapiens) was 76.1%, the inhibition (SH-SY5Y) was “Active” and the Activity (Caenorhabditis elegans) was 28%. The inhibition (Drosophila melanogaster [3]) was “Active” and the Papp at 10 h, 25 ug/ml (in vitro) was 2.54 ×10⁻⁶ cm/s.
With O=C(CCCN1CCCCC1)Nc1cccc2c1C(=O)c1cccc3ccnc-2c13 the pIC50 (Acetylcholinesterase) was 6.73, the inhibition (Drosophila melanogaster [2]) was “Dose-dependent effect” and the inhibition (Homo sapiens) was 61.3%. For the same molecule, the inhibition (SH-SY5Y) was “Active” and the Papp at 10 h, 25 ug/ml (in vitro) was 1.52 ×10⁻⁶ cm/s.
With O=C(CCCCCN1CCCCC1)Nc1cccc2c1C(=O)c1cccc3ccnc-2c13 the pIC50 (Acetylcholinesterase) was 6.33, the inhibition (Drosophila melanogaster [2]) was “Dose-dependent effect” and the inhibition (Homo sapiens) was 55.7%. It also gave a Papp at 10 h, 25 ug/ml (in vitro) of 4.92 ×10⁻⁶ cm/s.
In the case of COc1cc(/C=C/C(=O)CC(=O)/C=C/c2ccc(O)c(OC)c2)ccc1O, the inhibition (Homo sapiens) was 45.1%.
With O=C(CCCN1CCCCC1)Nc1c(Cl)ccc2c1-c1nccc3cccc(c13)C2=O the pIC50 (Acetylcholinesterase) was 6.83, the inhibition (Drosophila melanogaster [2]) was “Dose-dependent effect” and the inhibition (Homo sapiens) was 78.4%. The inhibition (Drosophila melanogaster [3]) was “Active” and the Papp at 10 h, 25 ug/ml (in vitro) was 2.44 ×10⁻⁶ cm/s.
In the case of O=C(CCCCN1CCCCC1)Nc1c(Cl)ccc2c1-c1nccc3cccc(c13)C2=O, the pIC50 (Acetylcholinesterase) was 5.74, the inhibition (Drosophila melanogaster [2]) was “Dose-dependent effect” and the inhibition (Homo sapiens) was 71.2%. For the same molecule, the Papp at 10 h, 25 ug/ml (in vitro) was 1.74 ×10⁻⁶ cm/s.
With O=C(CCCCN1CCCCC1)Nc1cccc2c1C(=O)c1cccc3ccnc-2c13 the pIC50 (Acetylcholinesterase) was 6.01, the inhibition (Drosophila melanogaster [2]) was “Dose-dependent effect” and the inhibition (Homo sapiens) was 52.5%. It also gave a Papp at 10 h, 25 ug/ml (in vitro) of 6.59 ×10⁻⁶ cm/s.
For O=C(CCN1CCCCC1)Nc1c(Cl)ccc2c1-c1nccc3cccc(c13)C2=O, the pIC50 (Acetylcholinesterase) was 7.55, the inhibition [1] was “Active” and the inhibition (Drosophila melanogaster [2]) was “Dose-dependent effect”. For the same molecule, the inhibition (Homo sapiens) was 74.6%, the inhibition at 1 µM [4] was 46% and the inhibition (SH-SY5Y) was “Active”. The Activity (Caenorhabditis elegans) was 26.5%, the inhibition (Drosophila melanogaster [3]) was “Active” and the Papp at 10 h, 25 ug/ml (in vitro) was 8.24 ×10⁻⁶ cm/s.
For O=C(CCCCCN1CCCCC1)Nc1c(Cl)ccc2c1-c1nccc3cccc(c13)C2=O, the pIC50 (Acetylcholinesterase) was 6.42, the inhibition (Drosophila melanogaster [2]) was “Dose-dependent effect” and the inhibition (Homo sapiens) was 67.7%. For the same molecule, the Papp at 10 h, 25 ug/ml (in vitro) was 2.72 ×10⁻⁶ cm/s.
With O=C(CN1CCCCC1)Nc1c(Cl)ccc2c1-c1nccc3cccc(c13)C2=O the pIC50 (Acetylcholinesterase) was 7.49, the inhibition (Drosophila melanogaster [2]) was “Dose-dependent effect” and the inhibition (Homo sapiens) was 51.3%. For the same molecule, the inhibition (SH-SY5Y) was “Active” and the Papp at 10 h, 25 ug/ml (in vitro) was 1.36 ×10⁻⁶ cm/s.
In the case of O=C(CN1CCCCC1)Nc1cccc2c1C(=O)c1cccc3ccnc-2c13, the pIC50 (Acetylcholinesterase) was 6.81, the inhibition (Drosophila melanogaster [2]) was “Dose-dependent effect” and the inhibition (Homo sapiens) was 57.6%. The Papp at 10 h, 25 ug/ml (in vitro) was 1.63 ×10⁻⁶ cm/s.
